Experimental data published in PubChem BioAssay (NCI).
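Exposure lasted 48 hours, with cells grown in 96-well plates and compounds tested at five concentrations. The concentration for full growth arrest is given as TGI.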

How the values were obtained:
Assay in all cases: DTP human tumour cell line panel, 48 h
[1] = test system: COLO 205 colon
[2] = test system: LOX IMVI melanoma
[3] = test system: DU-145 prostate
[4] = test system: SF-539 CNS
[5] = test system: SK-MEL-2 melanoma
[6] = test system: UACC-257 melanoma
[7] = test system: M14 melanoma
[8] = test system: MCF7 breast
[9] = test system: A498 renal
[10] = test system: RXF 393 renal
[11] = test system: UO-31 renal
[12] = test system: SK-MEL-5 melanoma
[13] = test system: HS 578T breast
[14] = test system: NCI-H23 lung
[15] = test system: OVCAR-5 ovarian

Row | Structure (SMILES) | TGI [1] [µM] | TGI [2] [µM] | TGI [3] [µM] | TGI [4] [µM] | TGI [5] [µM] | TGI [6] [µM] | TGI [7] [µM] | TGI [8] [µM] | TGI [9] [µM] | TGI [10] [µM] | TGI [11] [µM] | TGI [12] [µM] | TGI [13] [µM] | TGI [14] [µM] | TGI [15] [µM]
1 | CC1=NN(c2nc(N)nc(/C(C#N)=C/c3ccc([N+](=O)[O-])o3)n2)C(C)(C)C1 | 3.02 | 3.07 | 17 | 12 | 16.7 | 27.2 | 2.75 | 3.21 | 32.6 | 3.21 | 31.8 | 17 | 71.4 | 10.8 | 3.22
2 | CCOc1cc(-c2nc3ccccn3c2/N=C/c2cc([N+](=O)[O-])cc([N+](=O)[O-])c2O)ccc1O | > 100 | > 100 | > 100 | > 100 | > 100 | > 100 | > 100 | > 100 | > 100 | > 100 | > 100 | > 100 | > 100 | > 100 | > 100
3 | O[C@@]1(c2cccs2)c2cccc(Cl)c2[C@](O)(c2cccs2)c2cccc(Cl)c21 | 38.6 | 33.2 | 64.6 | > 100 | 42.4 | 30.3 | 31.5 | 37.2 | 25.8 | 38.2 | > 100 | 34.7 | 49.2 | 39.8 | 37.6
4 | COc1ccc(N)c(C(O)CCNC(C)=O)c1 (centres undefined) | > 100 | > 100 | > 100 | > 100 | > 100 | > 100 | > 100 | > 100 | > 100 | > 100 | > 100 | > 100 | > 100 | > 100 | > 100
5 | NC(=O)C(c1ccccc1)N1OC2C(=O)N(Cc3ccccc3)C(=O)C2C1c1cccc(Oc2ccc(Cl)cc2)c1 (centres undefined) | 32 | 34.2 | > 100 | 47.2 | 48.8 | > 100 | 69.5 | 69.4 | > 100 | 53 | 7.88 | 30.4 | > 100 | > 100 | > 100
6 | CCCCC1Cc2ccccc2-c2n1c1ccccc1[n+]2C (centres undefined) | – | 62.3 | > 100 | > 100 | 35.7 | 25.2 | > 100 | > 100 | > 100 | > 100 | > 100 | 18 | 81.5 | 42.5 | > 100
7 | CSc1c(C#N)c(O)n(-c2ccc(C)cc2)c(=O)c1C#N | > 100 | > 100 | > 100 | > 100 | > 100 | > 100 | > 100 | > 100 | > 100 | > 100 | > 100 | > 100 | > 100 | > 100 | > 100
8 | Clc1cc(OCc2nn3c(Cc4ccccc4)nnc3s2)ccc1OCc1nn2c(Cc3ccccc3)nnc2s1 | > 100 | > 100 | > 100 | > 100 | > 100 | > 100 | > 100 | > 100 | 79.6 | > 100 | > 100 | > 100 | > 100 | > 100 | > 100
